Columns and labels:
vasopressin V1 = assay: Vasopressin V1 Antagonist Activity in Conscious Rats (vasopressin vasopressor response); assay type: in vivo, rat (spontaneously hypertensive rats); design: Average Change: unit not given here
Experimental: Conscious rats are restrained in a supine position with elastic tape. The area at the base of the tail is locally anesthetized by subcutaneous infiltration with 2% procaine (0.2 ml). Using aseptic technique the ventral caudal tail artery is isolated and a cannula made of PE 10 and 20 (heat-fused) tubing is passed into the lower abdominal aorta. The cannula is secured, heparinized (1000 i.u./cc), sealed and the wound closed with one or two stitches of Dexon 4-0. The caudal vein is also cannulated in the same manner for intravenous drug administration. The duration of the surgery is approximately 5 minutes. Additional local anesthesia (2% procaine or lidocaine) is provided as needed.
The animals are placed in plastic restraining cages in an upright position. The cannula is attached to a Statham P23Db pressure transducer and pulsatile blood pressure is recorded. […] The vasopressin injections are repeated 30, 60, 90, 120, 180, 240 and 300 min. later. Percentage of antagonism by the compound is calculated using the pre-drug vasopressin vasopressor response as 100%.

vasopressin V2 = assay: Vasopressin V2 Antagonist Activity in Conscious Hydrated Rats (diuretic effect); assay type: in vivo, normal Sprague-Dawley rats; conditions: 30 mg/kg orally, AVP 0.4 μg/kg i.p.
Experimental: Conscious hydrated rats are treated with compounds under study from 0.1 to 100 mg/kg orally or vehicle. Two to four rats are used for each compound. One hour later, arginine vasopressin (AVP, antidiuretic hormore, ADH) dissolved in peanut oil is administered at 0.4 μg/kg intraperitoneally. Two rats in each test would not receive arginine vasopressin but only the vehicle (peanut oil) to serve as water-loading control. Twenty minutes later each rat is given 30 mL/kg of deionized water orally by gavage and is placed individually in a metabolic cage equipped with a funnel and a graduated glass cylinder to collect urine for four hours. Urine volume is measured and osmolality analyzed by use of a Fiske One-Ten osmometer (Fiske Assoc., Norwood, Mass., USA). Urinary sodium, potassium, and chloride are analyzed by use of ion-specific electrodes in a Beckman E3 (Electrolyte 3) Analyzer. In the following results, […] and decreased osmolality relative to AVP-control indicates activity.

[1] = target: vasopressin V1 receptor (rat liver plasma membranes) (Rattus norvegicus, UniProt P30560); assay: Binding Assay to Rat Hepatic V1 Receptors; conditions: rat hepatic V1
Experimental: Rat liver plasma membranes expressing the vasopressin V1 receptor subtypes are isolated by sucrose density gradient according to the method described by Lesko et al., (1973). These membranes are quickly suspended in 50.0 mM Tris.HCl buffer, pH 7.4, containing 0.2% bovine serum albumin (BSA) and 0.1 mM phenylmethylsulfonylfluoride (PMSF) and kept frozen at -70° C. until used in subsequent binding experiments. For binding experiments, the following is added to the wells of a ninety-six well format microtiter plate: 100 μl of 100.0 mM Tris.HCl buffer containing 10.0 mM MgCl2, 0.2% heat inactivated BSA and a mixture of protease inhibitors: leupeptin, 1.0 mg %; aprotinin, 1.0 mg %; 1,10-phenanthroline,2.0 mg %; trypsin inhibitor, 10.0 mg % and 0.1 mM PMSF, 20.0 μl of [phenylalanyl-3,4,5,-^3 H] vasopressin (S.A. 45.1 Ci/mmole) at 0.8 nM, and the reaction initiated by the addition of 80 μl of tissue membranes containing 20 μg of tissue protein. The plates are kept undisturbed on the bench top at room temperature for 120 min. to reach equilibrium. Non-specific samples are assayed in the presence of 0.1 μM of the unlabeled antagonist phenylalanylvasopressin, added in 20.0 μl volume.
For test compounds, these are solubilized in 50% dimethylsulfoxide (DMSO) and added in 20.0 μl volume to a final incubation volume of 200 μl. Upon completion of binding, the content of each well is filtered off, using a Brandel® cell Harvester (Gaithersburg, Md.). The radioactivity trapped on the filter disk by the ligand-receptor complex is assessed by liquid scintillation counting in a Packard LS Counter, with an efficiency of 65% for tritium.

[2] = target: T1, rat kidney medullary V2 receptors (Rattus norvegicus, UniProt Q00788); assay: Binding Assay to Rat Kidney Medullary V2 Receptors; conditions: rat kidney medullary V2
T1 construct: Medullary tissues from rat kidneys are dissected out; from tissue; host or cells: rat kidney medulla membranes
Experimental: Medullary tissues from rat kidneys are dissected out, cut into small pieces and soaked in a […] sodium chloride solution containing 1.0 mM EDTA with many changes of the liquid phase, until the solution is clear of blood. The tissue is homogenized in a 0.25M sucrose solution containing 1.0 mM EDTA and 0.1 mM PMSF using a Potter-Elvehjem homogenizer with a teflon pestle. The homogenate is filtered through several layers (4 layers) of cheese cloth. The filtrate is rehomogenized using a dounce homogenizer, with a tight fitting pestle. The final homogenate is centrifuged at 1500×g for 15 min. The nuclear pellet is discarded and the supernatant fluid recentrifuged at 40,000×g for 30 min. The resulting pellet formed contains a dark inner part with the exterior, slightly pink. The pink outer part is suspended in a small amount of 50.0 mM Tris.HCl buffer, pH 7.4. The protein content is determined by the Lowry's method (Lowry et al., J. Biol. Chem., 1953). The membrane suspension is stored at -70° C., in 50.0 mM Tris.HCl, containing 0.2% inactivated BSA and 0.1 mM PMSF in aliquots of 1.0 ml containing 10.0 mg protein per ml of suspension until use in subsequent binding experiments.
For binding experiments, the following is added in μl volume to wells of a 96 well format of a microtiter plate: 100.0 μl of 100.0 mM Tris.HCl buffer containing 0.2% heat inactivated BSA, 10.0 mM MgCl2 and a mixture of protease inhibitors: leupeptin, 1.0 mg %; aprotinin, 1.0 mg %; 1,10-phenanthroline, 2.0 mg %; trypsin inhibitor, 10.0 mg % and 0.1 mM PMSF, 20.0 μl of [^3 H] Arginine^8, vasopressin (S.A. 75.0 Ci/mmole) at 0.8 nM and the reaction initiated by the addition of 80.0 μl of tissue membranes (200.0 μg tissue protein). The plates are left undisturbed on the bench top for 120 min to reach equilibrium. Non-specific binding is assessed in the presence of 1.0 μM of unlabeled ligand, added in 20 μl volume. For test compounds, these are solubilized in 50% dimethylsulfoxide (DMSO) and added in 20.0 μl volume to a final incubation volume of 200 μl. Upon completion of binding, the content of each well is filtered off, using a Brandel® cell Harvester (Gaithersburg, Md.). The radioactivity trapped on the filter disk by the ligand-receptor complex is assessed by liquid scintillation counting in a Packard LS Counter, with an efficiency of 65% for tritium.

[3] = 30 mg/kg p.o., VAS 0.01 i.u./kg, 30 min
[4] = 30 mg/kg p.o., VAS 0.01 i.u./kg, 60 min
[5] = 30 mg/kg p.o., VAS 0.01 i.u./kg, 90 min
[6] = 30 mg/kg p.o., VAS 0.01 i.u./kg, 120 min
[7] = 30 mg/kg p.o., VAS 0.01 i.u./kg, 180 min
[8] = 30 mg/kg p.o., VAS 0.01 i.u./kg, 240 min
[9] = 30 mg/kg p.o., VAS 0.02 i.u./kg, 30 min
[10] = 30 mg/kg p.o., VAS 0.02 i.u./kg, 60 min
[11] = 30 mg/kg p.o., VAS 0.02 i.u./kg, 90 min
[12] = 30 mg/kg p.o., VAS 0.02 i.u./kg, 120 min
[13] = 30 mg/kg p.o., VAS 0.02 i.u./kg, 180 min
[14] = 30 mg/kg p.o., VAS 0.02 i.u./kg, 240 min
[15] = 10 mg/kg i.v., VAS 0.01 i.u./kg, 30 min
[16] = 10 mg/kg i.v., VAS 0.01 i.u./kg, 60 min
[17] = 10 mg/kg i.v., VAS 0.01 i.u./kg, 90 min
[18] = 10 mg/kg i.v., VAS 0.01 i.u./kg, 120 min
[19] = 10 mg/kg i.v., VAS 0.01 i.u./kg, 180 min
[20] = 10 mg/kg i.v., VAS 0.01 i.u./kg, 240 min
[21] = 10 mg/kg i.v., VAS 0.01 i.u./kg, 300 min
[22] = 10 mg/kg i.v., VAS 0.02 i.u./kg, 30 min
[23] = 10 mg/kg i.v., VAS 0.02 i.u./kg, 60 min
[24] = 10 mg/kg i.v., VAS 0.02 i.u./kg, 90 min
[25] = 10 mg/kg i.v., VAS 0.02 i.u./kg, 120 min
[26] = 10 mg/kg i.v., VAS 0.02 i.u./kg, 180 min
[27] = 10 mg/kg i.v., VAS 0.02 i.u./kg, 240 min
[28] = 10 mg/kg i.v., VAS 0.02 i.u./kg, 300 min

T1 sequence (Q00788 whole entry): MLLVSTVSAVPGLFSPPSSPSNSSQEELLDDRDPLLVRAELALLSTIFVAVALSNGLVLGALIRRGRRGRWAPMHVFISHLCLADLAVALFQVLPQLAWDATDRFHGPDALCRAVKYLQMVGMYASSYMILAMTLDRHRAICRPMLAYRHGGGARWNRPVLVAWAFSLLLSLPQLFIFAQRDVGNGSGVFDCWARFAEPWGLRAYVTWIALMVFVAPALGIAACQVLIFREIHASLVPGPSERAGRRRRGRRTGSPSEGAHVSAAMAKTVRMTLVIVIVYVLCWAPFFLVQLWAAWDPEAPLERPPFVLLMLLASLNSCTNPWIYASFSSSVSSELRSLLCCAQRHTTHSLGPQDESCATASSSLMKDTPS
vasopressin V1 receptor (rat liver plasma membranes), sequence (P30560 whole entry): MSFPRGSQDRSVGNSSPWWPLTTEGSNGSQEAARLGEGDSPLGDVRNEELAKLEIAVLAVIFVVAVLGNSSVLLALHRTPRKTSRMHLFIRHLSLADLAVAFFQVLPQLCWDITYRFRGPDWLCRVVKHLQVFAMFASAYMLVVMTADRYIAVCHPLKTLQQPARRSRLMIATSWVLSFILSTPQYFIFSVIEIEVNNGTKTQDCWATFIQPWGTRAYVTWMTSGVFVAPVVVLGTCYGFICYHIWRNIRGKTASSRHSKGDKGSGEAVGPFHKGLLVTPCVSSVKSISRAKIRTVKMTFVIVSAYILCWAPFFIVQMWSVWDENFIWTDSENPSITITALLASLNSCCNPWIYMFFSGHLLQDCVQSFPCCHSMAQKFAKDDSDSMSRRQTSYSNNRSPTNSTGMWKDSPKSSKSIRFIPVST

O=C(Cc1ccccc1Cl)Nc1ccc(C(=O)N2Cc3ccccc3Cc3ccccc32)cc1 [Example 16, 2-Chloro-N-[4-[(6,11-dihydro-5H-dibenz[b,e]azepin-5-yl)carbonyl]phenyl]benzeneacetamide]
Average Change (vasopressin V1; [3]): 25
Inhibition (vasopressin V1; [3]): 15%
Average Change (vasopressin V1; [4]): 30.5
Inhibition (vasopressin V1; [4]): -3%
Average Change (vasopressin V1; [5]): 28.5
Inhibition (vasopressin V1; [5]): 3%
Average Change (vasopressin V1; [6]): 23.5
Inhibition (vasopressin V1; [6]): 20%
Average Change (vasopressin V1; [7]): 30.5
Inhibition (vasopressin V1; [7]): -3%
Average Change (vasopressin V1; [8]): 30
Inhibition (vasopressin V1; [8]): -2%
Average Change (vasopressin V1; [9]): 27.5
Inhibition (vasopressin V1; [9]): 17%
Average Change (vasopressin V1; [10]): 29
Inhibition (vasopressin V1; [10]): 12%
Average Change (vasopressin V1; [11]): 40.5
Inhibition (vasopressin V1; [11]): -23%
Average Change (vasopressin V1; [12]): 29.5
Inhibition (vasopressin V1; [12]): 11%
Average Change (vasopressin V1; [13]): 26
Inhibition (vasopressin V1; [13]): 21%
Average Change (vasopressin V1; [14]): 30
Inhibition (vasopressin V1; [14]): 9%
Osmolality (vasopressin V2): 1257 mOsm/kg
Urine Volume (vasopressin V2): 7.2 ml/4 hrs.
IC50 [1]: 53 nM
IC50 [2]: 65 nM

Cc1ccccc1C(=O)Nc1ccc(C(=O)N2Cc3ccccc3C(C)c3ccccc32)cc1 (stereo not drawn) [Example 22]
Average Change (vasopressin V1; [15]): 8.5
Inhibition (vasopressin V1; [15]): 60%
Average Change (vasopressin V1; [16]): 11
Inhibition (vasopressin V1; [16]): 49%
Average Change (vasopressin V1; [17]): 14
Inhibition (vasopressin V1; [17]): 35%
Average Change (vasopressin V1; [18]): 17.5
Inhibition (vasopressin V1; [18]): 19%
Average Change (vasopressin V1; [19]): 20
Inhibition (vasopressin V1; [19]): 7%
Average Change (vasopressin V1; [20]): 28
Inhibition (vasopressin V1; [20]): -30%
Average Change (vasopressin V1; [21]): 30
Inhibition (vasopressin V1; [21]): -40%
Average Change (vasopressin V1; [22]): 18.5
Inhibition (vasopressin V1; [22]): 56%
Average Change (vasopressin V1; [23]): 25
Inhibition (vasopressin V1; [23]): 40%
Average Change (vasopressin V1; [24]): 13
Inhibition (vasopressin V1; [24]): 69%
Average Change (vasopressin V1; [25]): 30
Inhibition (vasopressin V1; [25]): 29%
Average Change (vasopressin V1; [26]): 36
Inhibition (vasopressin V1; [26]): 14%
Average Change (vasopressin V1; [27]): 48
Inhibition (vasopressin V1; [27]): -14%
Average Change (vasopressin V1; [28]): 52.5
Inhibition (vasopressin V1; [28]): -25%
Osmolality (vasopressin V2): 738 mOsm/kg
Urine Volume (vasopressin V2): 10.2 ml/4 hrs.
IC50 [1]: 320 nM
IC50 [2]: 140 nM
